Experimental data reported in the NIST ThermoML archive (doi:10.1021/je200420u).

Legend:
[1] = Molar enthalpy of transition or fusion; settings: DSC
[2] = molar heat capacity at constant pressure; settings: 101.33 kPa, Crystal 4, Small sample (50 mg) DSC
[3] = DTA

Oc1cc(O)nc(S)n1 [2-mercapto-4,6-pyrimidinediol]
Settings | Molar enthalpy of transition or fusion [kcal/mol] | Triple point temperature [K] | molar heat capacity at constant pressure [J/K/mol]
[1], Crystal 1 | 3.54 | – | –
[1], Crystal 2 | 0.0717 | – | –
[1], Crystal 3 | 0.0478 | – | –
[1], Crystal 4 | 0.167 | – | –
[2], 265.15 K | – | – | 124.3
[2], 270.15 K | – | – | 126.6
[2], 273.15 K | – | – | 128
[2], 275.15 K | – | – | 128.8
[2], 280.15 K | – | – | 131.1
[2], 285.15 K | – | – | 132.5
[2], 290.15 K | – | – | 134.2
[2], 295.15 K | – | – | 136.2
[2], 298.15 K | – | – | 137.2
[2], 300.15 K | – | – | 138.6
[2], 305.15 K | – | – | 140
[2], 310.15 K | – | – | 142.2
[2], 315.15 K | – | – | 144.7
[2], 320.15 K | – | – | 146.3
[2], 325.15 K | – | – | 147.9
[2], 330.15 K | – | – | 150.1
[2], 335.15 K | – | – | 152
[2], 340.15 K | – | – | 153.8
[2], 345.15 K | – | – | 155.2
[2], 350.15 K | – | – | 156.6
[2], 355.15 K | – | – | 158.4
[2], 360.15 K | – | – | 160.2
[2], 365.15 K | – | – | 162.6
[2], 370.15 K | – | – | 164.7
[2], 375.15 K | – | – | 166
[2], 380.15 K | – | – | 167.7
[2], 385.15 K | – | – | 169.2
[2], 390.15 K | – | – | 171
[2], 395.15 K | – | – | 172.3
[2], 400.15 K | – | – | 174.8
[2], 405.15 K | – | – | 175.9
[2], 410.15 K | – | – | 177.2
[2], 415.15 K | – | – | 178.5
[2], 420.15 K | – | – | 179.8
[2], 425.15 K | – | – | 181.3
[2], 430.15 K | – | – | 182.9
[3], Crystal 1 | – | 516.4 | –
[3], Crystal 2 | – | 498 | –
[3], Crystal 3 | – | 475.8 | –
[3], Crystal 4 | – | 447.2 | –

CCN1C(=O)CC(=O)N(CC)C1=S [1,3-diethyl-2-thiobarbituric acid]
Settings | Molar enthalpy of transition or fusion [kcal/mol] | Triple point temperature [K] | molar heat capacity at constant pressure [J/K/mol]
[1], Crystal | 8.48 | – | –
[2], 265.15 K | – | – | 213.5
[2], 270.15 K | – | – | 217.3
[2], 273.15 K | – | – | 219.8
[2], 275.15 K | – | – | 221.2
[2], 280.15 K | – | – | 224.5
[2], 285.15 K | – | – | 227.7
[2], 290.15 K | – | – | 230.4
[2], 295.15 K | – | – | 233.7
[2], 298.15 K | – | – | 236.9
[2], 300.15 K | – | – | 238.9
[2], 305.15 K | – | – | 240.8
[2], 310.15 K | – | – | 244.8
[2], 315.15 K | – | – | 249.8
[2], 320.15 K | – | – | 252.9
[2], 325.15 K | – | – | 256.1
[2], 330.15 K | – | – | 259.7
[2], 335.15 K | – | – | 263.1
[2], 340.15 K | – | – | 266.5
[2], 345.15 K | – | – | 269.7
[2], 350.15 K | – | – | 273.3
[2], 355.15 K | – | – | 277.8
[2], 360.15 K | – | – | 282.3
[2], 365.15 K | – | – | 287.2
[3], Crystal | – | 377.1 | –
